# Laboratory results: patent publication US4002530A, “6-Aminopenicillanic acid derivative” (Recherche et Industrie Therapeutiques (R.I.T.), priority 1975, dated 1977)
# Counter-ions that a name gives are not always drawn. Like-named read-outs stand apart in the source and are kept apart here.
# Legend:
# physchem = assay type: physicochemical; conditions: for half-life: reconstituted gastric juice, pH 1.3
# From the text: Antibiotic RIT D-2214 can be colorimetrically assayed by the classical hydroxylamine method of penicillin assay. […] Recoveries were estimated according to the hydroxylamine assay method.
# Corynebacterium xerosis = assay: broth dilution test, minimum inhibitory concentration; assay type: cell-based; conditions: about 20 hours at 35° C, tested as monoammonium salt
# Shigella sonnei = assay: as above; assay type: cell-based; conditions: about 20 hours at 35° C, tested as monoammonium salt
# Method: (§1) Antibiotic RIT D-2214 has been tested in form of the mono ammonium salt in position 3 of the penam nucleus and, for that reason, is herein below charcterized as this monoammonium salt.
# (§2) The inhibitory levels were determined by the broth dilution test. A series of tubes containing varied concentrations of the monoammonium salt of antibiotic RIT D-2214 were inoculated with the test organism to determine the minimum concentration of the ammonium salt of antibiotic RIT D-2214 in mcg/ml. in the broth substrate which inhibited organism growth for a period of about twenty hours at 35° C.
# Staphylococcus aureus = assay: as above; assay type: cell-based; conditions: about 20 hours at 35° C, tested as monoammonium salt
# Method: as §1, §2
# [1] = system: Staphylococcus aureus Pen.resist.; assay: as above; assay type: cell-based; conditions: penicillin resistant, about 20 hours at 35° C, tested as monoammonium salt
# Bacillus subtilis = assay: as above; assay type: cell-based; conditions: about 20 hours at 35° C, tested as monoammonium salt
# Escherichia coli = assay: as above; assay type: cell-based; conditions: read-out: Minimum Inhibitory concentration
# E. coli Pen. resistant = assay: as above; assay type: cell-based; conditions: Escherichia coli, penicillin resistant, about 20 hours at 35° C, tested as monoammonium salt
# Alcaligenes faecalis = assay: as above; assay type: cell-based; conditions: about 20 hours at 35° C, tested as monoammonium salt
# Aerobacter aerogenes = assay: as above; assay type: cell-based; conditions: Klebsiella aerogenes, read-out: Minimum Inhibitory concentration
# Klebsiella pneumoniae = assay: as above; assay type: cell-based; conditions: about 20 hours at 35° C, tested as monoammonium salt
# Salmonella paratyphi = assay: as above; assay type: cell-based; conditions: Salmonella enterica, 20 h, read-out: Minimum Inhibitory concentration
# Salmonella meleagridis = assay: as above; assay type: cell-based; conditions: about 20 hours at 35° C, tested as monoammonium salt
# Salmonella typhi = assay: as above; assay type: cell-based; conditions: Salmonella enterica, 20 h, read-out: Minimum Inhibitory concentration
# Salmonella typhimurium = assay: as above; assay type: cell-based; conditions: Salmonella enterica, about 20 hours at 35° C, tested as monoammonium salt
# Salmonella panama = assay: as above; assay type: cell-based; conditions: Salmonella enterica, about 20 hours at 35° C, tested as monoammonium salt
# Salmonella anatum = assay: as above; assay type: cell-based; conditions: Salmonella enterica, about 20 hours at 35° C, tested as monoammonium salt
# Proteus mirabilis = assay: as above; assay type: cell-based; conditions: read-out: Minimum Inhibitory concentration
# Proteus morganii = assay: as above; assay type: cell-based; conditions: Morganella morganii, about 20 hours at 35° C, tested as monoammonium salt
# Vibrio el tor = assay: as above; assay type: cell-based; conditions: about 20 hours at 35° C, tested as monoammonium salt
# Brucella abortus = assay: microbe, parasite or virus in culture; assay type: cell-based; conditions: 20 h, read-out: Minimum Inhibitory concentration
# [2] = system: Bordetella bronchiseptica; assay: broth dilution test, minimum inhibitory concentration; assay type: cell-based; conditions: about 20 hours at 35° C, tested as monoammonium salt
# Pseudomonas aeruginosa = assay: as above; assay type: cell-based; conditions: about 20 hours at 35° C, tested as monoammonium salt
# Escherichia coli 47 = assay: mice protection test; assay type: in vivo; conditions: Escherichia coli, 47, sc, 72 h; s.c., one hour after intravenous infection, observed 3 days; read-out: ED50 (total dose required to protect 50% of the infected mice)
# Method: (§3) Comparative trials with ampicillin were performed in vivo according to the usual mice protection test procedure. The test compound was administered in graded dilutions to mice either subcutaneously (s.c.) in water or orally (or.) in combination with calcium carbonate one hour after intravenous infection with uniformly lethal doses of the test organism.
# Escherichia coli 9 = assay: mice protection test; assay type: in vivo; conditions: Escherichia coli, 9, sc, 72 h; s.c., one hour after intravenous infection, observed 3 days; read-out: ED50 (total dose required to protect 50% of the infected mice)
# Method: as §3
# [3] = system: Klebsiella pneumoniae SK&F 4200; assay: mice protection test; assay type: in vivo; conditions: 72 h, one hour after intravenous infection, observed 3 days, read-out: ED50 (total dose required to protect 50% of the infected mice)
# Method: as §3
# Proteus mirabilis 11 = assay: mice protection test; assay type: in vivo; conditions: Proteus mirabilis, 11, sc, 72 h; s.c., one hour after intravenous infection, observed 3 days; read-out: ED50 (total dose required to protect 50% of the infected mice)
# Method: as §3
# [4] = system: Salmonella brandebourg 22; assay: mice protection test; assay type: in vivo; conditions: Salmonella, 22, sc, 72 h; s.c., one hour after intravenous infection, observed 3 days; read-out: ED50 (total dose required to protect 50% of the infected mice)
# Method: as §3
# [5] = system: Salmonella enteritidis 24; assay: mice protection test; assay type: in vivo; conditions: Salmonella enterica, sc, 72 h, s.c., one hour after intravenous infection, observed 3 days, read-out: ED50 (total dose required to protect 50% of the infected mice)
# Method: as §3
# Salmonella panama 20 = assay: mice protection test; assay type: in vivo; conditions: Salmonella enterica, 20, sc, 72 h; s.c., one hour after intravenous infection, observed 3 days; read-out: ED50 (total dose required to protect 50% of the infected mice)
# Method: as §3
# Shigella flexneri 25 = assay: mice protection test; assay type: in vivo; conditions: Shigella flexneri, 25, sc, 72 h; s.c., one hour after intravenous infection, observed 3 days; read-out: ED50 (total dose required to protect 50% of the infected mice)
# Method: as §3
# [6] = system: Staphylococcus aureus 663; assay: mice protection test; assay type: in vivo; conditions: Staphylococcus aureus, 663, sc, 72 h; s.c., one hour after intravenous infection, observed 3 days; read-out: ED50 (total dose required to protect 50% of the infected mice)
# Method: as §3
# [7] = system: Vibrio parahaemoliticus 194; assay: mice protection test; assay type: in vivo; conditions: Vibrio, 194, 72 h; oral with calcium carbonate, one hour after intravenous infection, observed 3 days; read-out: ED50 (total dose required to protect 50% of the infected mice)
# Method: as §3
# in vivo [8] = assay: in vivo; parameters: species or system mice; conditions: mouse, sc, 20 mg/kg
# From the text: (§4) Plasma samples were adequately diluted with sterile water and assayed according to the usual agar diffusion method, using Bacillus subtilis ATCC 6633 as the test organism.
# in vivo [9] = assay: in vivo; parameters: species or system rats; conditions: rat, sc, 20 mg/kg
# From the text: as §4
# in vivo [10] = assay: in vivo; parameters: species or system dogs; conditions: dog, sc, 20 mg/kg
# From the text: as §4
# [11] = stability in water solution; assay type: physicochemical; conditions: 4° C, not more than 7 days
# [12] = system: Staphylococcal preparation of β-lactamase; assay: destruction by Staphylococcal preparation of β-lactamase (Penase Leo); assay type: biochemical
# [13] = system: Gram-positive and Gram-negative bacteria; assay: inhibitory activity against growth of bacteria; assay type: cell-based; conditions: Gram-positive and Gram-negative bacteria
# Method: as §1, §2
# [14] = system: Gram-positive and Gram-negative microorganisms; assay: in vivo activity against microorganisms; parameters: species or system mice
# Method: as §3
# Alcaligenes viscolactis = assay: agar-diffusion method; assay type: cell-based
# From the text: The testing of samples can be carried out by the well known agar-diffusion method on Petri dishes or on plates.
# [15] = broth dilution, about 20 hours at 35° C, tested as monoammonium salt
compound,measurement,setting,value
"CC1(C)S[C@@H]2[C@H](NC(=O)Cc3ccccc3)C(=O)N2[C@H]1C(=O)O [penicillin G, reference compound]",half-life,physchem,7 min
"CC1(C)S[C@@H]2[C@H](NC(=O)CSC[C@@H](N)C(=O)O)C(=O)N2[C@H]1C(=O)O [RIT D-2214, 6-(D)-{[(2-amino-2-carboxy)-ethylthio]-acetamido}-penicillanic acid]",MIC,Corynebacterium xerosis,< 0.02 µg/mL
same,MIC,Shigella sonnei,20 µg/mL
same,MIC,Staphylococcus aureus,1.25 µg/mL
same,MIC,[1],80 µg/mL
same,MIC,Bacillus subtilis,0.3 µg/mL
same,MIC,Escherichia coli; 20 h,1.25 µg/mL
same,MIC,E. coli Pen. resistant,80 µg/mL
same,MIC,Alcaligenes faecalis,1.6 µg/mL
same,MIC,Aerobacter aerogenes; 20 h,1.25 µg/mL
same,MIC,Klebsiella pneumoniae,80 µg/mL
same,MIC,Salmonella paratyphi,1.25 µg/mL
same,MIC,Salmonella meleagridis,0.6 µg/mL
same,MIC,Salmonella typhi,0.6 µg/mL
same,MIC,Salmonella typhimurium,40 µg/mL
same,MIC,Salmonella panama,40 µg/mL
same,MIC,Salmonella anatum,0.6 µg/mL
same,MIC,Proteus mirabilis; 20 h,1.25 µg/mL
same,MIC,Proteus morganii,40 µg/mL
same,MIC,Vibrio el tor,0.6 µg/mL
same,MIC,Brucella abortus,20 µg/mL
same,MIC,[2],0.6 µg/mL
same,MIC,Pseudomonas aeruginosa,80 µg/mL
same,ED50,Escherichia coli 47,< 10 mg/kg
same,ED50,Escherichia coli 9,10.9 mg/kg
same,ED50,[3]; oral with calcium carbonate,25.3 mg/kg
same,ED50,"[3]; sc, s.c.",< 11 mg/kg
same,ED50,Proteus mirabilis 11,< 10 mg/kg
same,ED50,[4],13 mg/kg
same,ED50,[5],13.5 mg/kg
same,ED50,Salmonella panama 20,< 10 mg/kg
same,ED50,Shigella flexneri 25,52.5 mg/kg
same,ED50,[6],< 11 mg/kg
same,ED50,[7],22.7 mg/kg
same,concentration at 5 min,in vivo [8],13000 ng/mL
same,concentration at 0.25 h,in vivo [8],15000 ng/mL
same,concentration at 0.5 h,in vivo [8],10000 ng/mL
same,concentration at 1 h,in vivo [8],6000 ng/mL
same,concentration at 5 min,in vivo [9],12000 ng/mL
same,concentration at 0.25 h,in vivo [9],23000 ng/mL
same,concentration at 0.5 h,in vivo [9],17000 ng/mL
same,concentration at 1 h,in vivo [9],12000 ng/mL
same,concentration at 2 h,in vivo [9],7500 ng/mL
same,concentration at 0.25 h,in vivo [10],18000 ng/mL
same,concentration at 0.5 h,in vivo [10],23000 ng/mL
same,concentration at 1 h,in vivo [10],22500 ng/mL
same,concentration at 2 h,in vivo [10],9000 ng/mL
same,stability under acid conditions,physchem,relatively stable under acid conditions
same,half-life,physchem,25 min
same,stability in water solution,[11],relatively stable
same,destruction by β-lactamase,[12],rapidly destroyed
same,inhibitory activity against the growth of bacteria,[13],exhibits inhibitory activity
same,in vivo activity,[14]; Gram-positive and Gram-negative microorganisms,exhibits in vivo activity
same,efficacy when administered orally,[14]; oral,less advantageous when administered orally
same,sensitivity of Alcaligenes viscolactis,Alcaligenes viscolactis,very high sensitivity
CC1(C)S[C@@H]2[C@H](NC(=O)CSC[C@H](N)C(=O)O)C(=O)N2[C@H]1C(=O)O [RIT L-2214],MIC,Shigella sonnei,80 µg/mL
same,MIC,Staphylococcus aureus,1.25 µg/mL
same,MIC,[1],80 µg/mL
same,MIC,Bacillus subtilis,0.31 µg/mL
same,MIC,Escherichia coli; [15],40 µg/mL
same,MIC,E. coli Pen. resistant,80 µg/mL
same,MIC,Aerobacter aerogenes; [15],20 µg/mL
same,MIC,Klebsiella pneumoniae,80 µg/mL
same,MIC,Salmonella paratyphi,20 µg/mL
same,MIC,Proteus mirabilis; [15],20 µg/mL
same,MIC,Proteus morganii,80 µg/mL
same,MIC,Pseudomonas aeruginosa,80 µg/mL
CC1(C)S[C@@H]2[C@H](NC(=O)CSC[C@@H](N)C(=O)O)C(=O)N2[C@H]1C(=O)O [monoammonium salt of antibiotic RIT D-2214],inhibitory activity against the growth of bacteria,[13],strong activity
